The values that follow come from paper PMC13129453, “Targeting the US21 viroporin of human cytomegalovirus by calcium channel blockers as a new antiviral strategy” (Current Research in Microbial Sciences, 2026).

The EC50 is the concentration giving half of the maximal effect. One may read the EC90 as the point of the concentration-response curve where the effect stands at 90%. In general, CC50 refers to the concentration giving 50% cytotoxicity.

One data set relates to HCMV TRUS21stop. The data set is described as follows: microbe, parasite or virus in culture. The class given is cell-based, Human cytomegalovirus.
Data set [1] has as its system HCMV TRwt. The data set can be described thus: Focus-forming reduction assay (FFRA), HCMV TRwt. The class given is cell-based, Human cytomegalovirus.
Another data set addresses T1, pUS21 (Human cytomegalovirus, UniProt P09723).
T1 construct: expressed in transfected cells; host or cells: T-REx-U2OS-US21-HA (human osteosarcoma U2OS, stably transfected, tetracycline-inducible)
Format: cell-based. As for the experimental part:
Calcium measurement was determined applying the Ca^2+ add back protocol as previously described ([Luganini et al., 2023]). Briefly, non-induced (NI) or induced (I) T-REx-U2OS-US21-HA cell lines for 48 h with tetracycline, plated at a density of 5000 cells/cm^2 on glass coverslips, were loaded (45 min at 37 °C) with 2 μM Fura-2 AM (Invitrogen, Waltham, MA, USA) and excited at two alternating wavelengths: 340 and 380 nm. Fluorescence emission was captured using a Nikon Eclipse TE-2000S inverted microscope equipped with the MetaFluor Imaging System (Molecular Devices, San Jose, CA, USA). Ratiometric cytosolic Ca^2+ ([Ca^2+]c) quantification was expressed as the ratio (R) of fluorescence emitted at 510 nm for the two excitation wavelengths. Images were acquired every 3 s. Ca^2+ imaging analysis was conducted by peak amplitude quantification using Clampfit 11.1 (Axon pClamp, Molecular Devices). Responses with a ΔR340/380 > 0.05 were taken in account. To assess the ER Ca^2+ content in T-REx-U2OS-US21-HA NI or I cells, depletion of the ER Ca^2+ pool was triggered using IP3mix in the absence of extracellular Ca^2+ (0 Ca^2+). IP3mix consisted of thapsigargin (2 μM), histamine (100 μM), and ATP (100 μM). The experiments were performed in acute treatment in presence of CCBs or DMSO, as control at 0.01%.

The test system of data set [2] is HCMV VR1814. The data set can be described thus: Focus-forming reduction assay (FFRA), HCMV VR1814. Format: cell-based, Human cytomegalovirus.
Data set [3] has as its system HCMV VR1814. The data set is described as follows: Focus-forming reduction assay (FFRA), HCMV VR1814. The class given is cell-based, Human cytomegalovirus. The settings on record: hT-HFF; for EC50 / EC90: Human betaherpesvirus 5, VR1814, FFRA, 96 h p.i.; for SI: VR1814, ratio between CC50 and EC50. As for the experimental part: (§1) The antiviral activity of CCBs was evaluated against VR1814 and TRwt by means of the focus-forming reduction assay (FFRA) procedure. Briefly, hT-HFFs were seeded on 96-well plates (20,000 cells/well) and, after 24 h, treated with different concentrations of compounds (maximum concentration 20 μM, or 100 μM for felodipine) 1 h prior to and during viral infection (50 PFU/well). Control HCMV-infected cells were exposed to vehicle DMSO at 0.04%, or 0.2% for felodipine). After virus adsorption (2 h at 37 °C), virus inoculum was removed and infected cell cultures were incubated in medium containing the corresponding compounds plus 1.2% (w/v) methylcellulose (Merck) and 5% (v/v) FBS. At 96 h post infection (p.i.), cell monolayers were fixed and subjected to indirect immunoperoxidase staining (IPA) with the HCMV IEA mAb (diluted 1:150). Viral foci were microscopically counted, and the mean plaque counts for each drug concentration were expressed as a percentage of the mean plaque counts of control virus (DMSO). GraphPad Prism software was used to determine the concentration of compounds producing 50 and 90% reductions in viral titers (EC50 and EC90).

The nature of data set [4]: Cell cytotoxicity assay (MTT), HMVECs. The settings on record: human; for CC50 at 5 days: HMVECs, HMVEC, MTT, five days of treatment. The class given is cell-based. The procedure: (§2) The effect of test compounds on cell viability was determined in hT-HFFs, HMVECs and T-REx-U2OS-US21-HA cells seeded in p96-well (12,000 cells/well). After 24 h, cells were treated with compounds at concentrations starting from 300 μM and then serially diluted in culture medium, or with DMSO alone starting from 0.6% v/v as the vehicle control. For cell viability of drug combination studies, the control with DMSO was from 0.07%.

A short description of data set [5]: Cell cytotoxicity assay (MTT), hT-HFFs. The class given is cell-based. The settings on record: human; for CC50 at 5 days: hT-HFFs, hT-HFF, MTT, five days of treatment. As for the experimental part: as §2
Data set [6] deals with HCMV TRwt. The data set can be described thus: Focus-forming reduction assay (FFRA), HCMV TRwt. The settings on record: for EC50 / EC90: Human betaherpesvirus 5, hT-HFF, FFRA, 96 h p.i.; for SI: hT-HFF, ratio between CC50 and EC50. Format: cell-based, Human cytomegalovirus. As for the experimental part: as §1
Setting [7] is: Human betaherpesvirus 5, hT-HFF, TRUS21stop, FFRA, 96 h p.i., read-out: EC50.
The mark [8] stands for this setting: Human betaherpesvirus 5, hT-HFF, TRUS21stop, FFRA, 96 h p.i., read-out: EC90.
Where [9] appears, read: hT-HFF, TRUS21stop, ratio between CC50 and EC50.
Setting [10] is: HMVEC, TRwt, ratio between CC50 and EC50.
[11] abbreviates: Human betaherpesvirus 5, HMVEC, TRwt, FFRA, 96 h p.i., read-out: EC50.
Where [12] appears, read: Human betaherpesvirus 5, HMVEC, TRwt, FFRA, 96 h p.i., read-out: EC90.
Setting [13] is: HMVEC, VR1814, ratio between CC50 and EC50.
Setting [14] is: Human betaherpesvirus 5, HMVEC, VR1814, FFRA, 96 h p.i., read-out: EC50.
Where [15] appears, read: Human betaherpesvirus 5, HMVEC, VR1814, FFRA, 96 h p.i., read-out: EC90.
[16] abbreviates: Human betaherpesvirus 5, HMVEC, 96 h.

Where “and” joins values, the source holds several entries; their conditions need not be identical. Equal values may be shown once. Read-outs that look alike come from different tables or passages of the source. Some results are limits rather than exact numbers.

T1 sequence (P09723 whole entry): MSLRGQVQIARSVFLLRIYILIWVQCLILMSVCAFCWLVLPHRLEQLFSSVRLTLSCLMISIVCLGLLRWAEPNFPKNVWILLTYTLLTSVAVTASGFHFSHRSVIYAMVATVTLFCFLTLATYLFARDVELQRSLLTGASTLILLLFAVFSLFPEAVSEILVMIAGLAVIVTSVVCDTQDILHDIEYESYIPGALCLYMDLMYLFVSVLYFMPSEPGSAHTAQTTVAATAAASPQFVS

For `CC1=C(C(=O)OC(C)C)C(c2cccc([N+](=O)[O-])c2)C(C(=O)OC2CN(C(c3ccccc3)c3ccccc3)C2)=C(N)N1` (stereo not shown) [Azelnidipine, azelnidipine], the EC50 in the data set with HCMV TRUS21stop (setting [7]) amounted to 5.46 ± 0.17 µM; with HCMV TRwt [1] (setting [11]), 2.12 ± 0.14 µM; in the data set with HCMV VR1814 [2] (setting [14]), 3.09 ± 0.46 µM; with HCMV VR1814 [3], 2.96 ± 0.53 µM; with HCMV TRwt [6] it was 1.53 ± 0.32 µM. Moreover, the EC90 was found to be 19.36 ± 0.06 µM in the data set with HCMV TRUS21stop (setting [8]); 9.53 ± 0.76 µM with HCMV TRwt [1] (setting [12]); 19 ± 0.27 µM with HCMV VR1814 [2] (setting [15]); 14.7 ± 0.39 µM in the data set on HCMV VR1814 [3]; 12.1 ± 0.27 µM in the data set with HCMV TRwt [6]. The SI with HCMV TRUS21stop (setting [9]) was determined as 35.16; in the data set on HCMV TRwt [1] (setting [10]), 160.87; with HCMV VR1814 [2] (setting [13]) it was 110.37; in the data set with HCMV VR1814 [3], 64.87; in the data set on HCMV TRwt [6], 125.50. On pUS21, the “Ca2+-conducting activity of pUS21 (Ca2+ release from the ER after IP3mix)” value (“Ca2+-conducting activity of pUS21” for short) is given as “can hamper the Ca^2+-mobilizing activity of pUS21”. Also, the CC50 at 5 days in data set [4] turned out to be 341 ± 20.1 µM; in data set [5], 192 ± 20.5 µM.

Regarding `CC1=C(C(=O)OCCN(Cc2ccccc2)c2ccccc2)C(c2cccc([N+](=O)[O-])c2)C(P2(=O)OCC(C)(C)CO2)=C(C)N1` (stereo not shown) [Efonidipine, efonidipine], the EC50 amounted to 7.11 ± 0.05 µM in the data set on HCMV TRUS21stop (setting [7]); 3.55 ± 0.13 µM in the data set on HCMV TRwt [1] (setting [11]); 3.59 ± 0.67 µM with HCMV VR1814 [2] (setting [14]); 3.04 ± 0.23 µM in the data set with HCMV VR1814 [3]; 3.18 ± 0.07 µM in the data set on HCMV TRwt [6]. The EC90 was over 20 µM in the data set on HCMV TRUS21stop (setting [8]); 6.58 ± 0.91 µM in the data set with HCMV TRwt [1] (setting [12]); 19.5 ± 0.72 µM with HCMV VR1814 [2] (setting [15]); 13.6 ± 2.46 µM in the data set with HCMV VR1814 [3]; 14.2 ± 1.67 µM in the data set on HCMV TRwt [6]. For the same compound, the SI in the data set with HCMV TRUS21stop (setting [9]) is 47.77; with HCMV TRwt [1] (setting [10]) it was 83.21; in the data set with HCMV VR1814 [2] (setting [13]) it was 82.28; in the data set with HCMV VR1814 [3] it was 111.74; in the data set with HCMV TRwt [6], 106.82. Further, at pUS21, the “Ca2+-conducting activity of pUS21” value is “can hamper the Ca^2+-mobilizing activity of pUS21”. In addition, the CC50 at 5 days in data set [4] is 295 ± 11 µM; in data set [5], 340 ± 20.1 µM.

As to `COC(=O)C1=C(C)NC(C)=C(C(=O)OC(C)(C)CN(C)CCC(c2ccccc2)c2ccccc2)C1c1cccc([N+](=O)[O-])c1` (stereo not shown) [Lercanidipine, lercanidipine], the EC50 in the data set with HCMV TRUS21stop (setting [7]) turned out to be 7.6 ± 0.11 µM; with HCMV TRwt [1] (setting [11]), 3.32 ± 0.38 µM; in the data set on HCMV VR1814 [2] (setting [14]) it was 2.7 ± 0.54 µM; with HCMV VR1814 [3] it was 3.12 ± 0.43 µM; in the data set with HCMV TRwt [6], 3.08 ± 0.28 µM. Further, the EC90 in the data set with HCMV TRUS21stop (setting [8]) turned out to be 19.9 ± 0.5 µM; in the data set on HCMV TRwt [1] (setting [12]) it was 5.9 ± 0.11 µM; in the data set on HCMV VR1814 [2] (setting [15]) it was 14.5 ± 0.19 µM; with HCMV VR1814 [3] it was 12.7 ± 1.66 µM; in the data set on HCMV TRwt [6] it was 12.7 ± 1.6 µM. Also, the SI is 16.65 in the data set with HCMV TRUS21stop (setting [9]); 86.09 with HCMV TRwt [1] (setting [10]); 105.86 with HCMV VR1814 [2] (setting [13]); 40.55 in the data set with HCMV VR1814 [3]; 41.08 in the data set with HCMV TRwt [6]. Also, the “Ca2+-conducting activity of pUS21” value at pUS21 is given as “can hamper the Ca^2+-mobilizing activity of pUS21”. The CC50 at 5 days was found to be 286 ± 19.1 µM in data set [4] and 127 ± 18.8 µM in data set [5].

`CC(C)Nc1nc2cc(Cl)c(Cl)cc2n1[C@H]1O[C@@H](CO)[C@H](O)[C@@H]1O` [MBV, Maribavir]: the EC50 in the data set on HCMV TRwt [1] (setting [11]) is 4.74 µM.

`COC(=O)C1=C(C)NC(C)=C(C(=O)OCCCN2CCC(c3ccccc3)(c3ccccc3)CC2)[C@H]1c1cccc([N+](=O)[O-])c1` [Niguldipine, niguldipine]: the SI is 68.70 in the data set on HCMV TRUS21stop; 191.39 and 178.40 in the data set with HCMV TRwt [1]; 67.93 and 76.31 with HCMV VR1814 [2]. Moreover, the EC50 is 3.51 ± 0.22 µM with HCMV TRUS21stop (Human betaherpesvirus 5, 96 h); 1.26 ± 0.31 µM in the data set on HCMV TRwt [1] (Human betaherpesvirus 5, 96 h); 1.15 ± 0.29 µM with HCMV TRwt [1] (setting [16]); 3.16 ± 0.64 µM in the data set with HCMV VR1814 [2] (Human betaherpesvirus 5, 96 h); 3.02 ± 0.16 µM in the data set on HCMV VR1814 [2] (setting [16]). In addition, the EC90 with HCMV TRUS21stop (Human betaherpesvirus 5, 96 h) amounted to 13 ± 0.63 µM; in the data set on HCMV TRwt [1] (Human betaherpesvirus 5, 96 h) it was 7.33 ± 2.54 µM; with HCMV TRwt [1] (setting [16]), 7.24 ± 0.59 µM; with HCMV VR1814 [2] (Human betaherpesvirus 5, 96 h), 15 ± 0.48 µM; in the data set on HCMV VR1814 [2] (setting [16]), 12.7 ± 0.16 µM. In addition, on pUS21, the “Ca2+-conducting activity of pUS21” value was “can hamper the Ca^2+-mobilizing activity of pUS21”. Further, the CC50 was determined as 205 ± 23.3 µM in data set [4] and 241 ± 23.9 µM in data set [5].

Consider `CCOC(=O)C1=C(C)NC(C)=C(C(=O)OC)C1c1cccc(Cl)c1Cl` (stereo not shown) [felodipine], for which the EC50 in the data set on HCMV TRUS21stop (setting [7]) and in the data set on HCMV TRwt [6] was 19.4 µM throughout.
